Results published in patent publication US9790201B2, “Piperidine and azepine derivatives as prokineticin receptor modulators” (TAKEDA PHARMACEUTICAL COMPANY LIMITED, priority 2013, dated 2017).
Where a name gives a salt, the structure may show the parent alone.

Target: human PKR1 receptors (Homo sapiens (Human), UniProt Q8TCW9)
Experiment: PKR1 antagonist assay: block of PK1-mediated intracellular calcium release (FLIPR Tetra)
Type: cell-based
Conditions: RBL2H3 cells expressing human PKR1; stimulation with PK1 at EC80; calcium fluorescence
Protocol: Prokineticin receptor 1 (PKR1) antagonists may be functionally assessed by measurement of change in intracellular calcium levels induced by Gq mediated increase in inositol triphosphate (IP3) levels. The ability of a compound to block the intracellular release of calcium mediated by PK1 in RBL2H3 cells expressing human PKR1 receptors is determined as a measure of the compound's antagonist activity in vitro.
Approximately 10,000 cells per assay well are seeded in normal culture medium in a 384 well plate (Corning). Twenty-four hours after seeding, the cells are loaded with a calcium sensitive fluorescent dye by replacing the culture medium with assay buffer (1× Hanks buffered saline, 25 mM HEPES, 0.1% w/v fatty acid free BSA (bovine serum albumin), pH 7.4) containing 1 mM probenecid and 1× Calcium 5 Reagent (Molecular Devices). Cells are incubated at 37° C. for 1 hour to allow for dye uptake.
To test for antagonist activity, test compounds at a final concentration range between 0.32 nM-10 μM (diluted in assay buffer) are added to the assay wells and allowed to incubate for 10 minutes prior to stimulation with PK1. After incubation with test compounds the assay plate is placed in a FLIPR Tetra (Molecular Devices) and PK1 (diluted in assay buffer) is added at the determined EC80 concentration (final). Ligand-dependent changes in intracellular calcium levels are determined by measuring changes in fluorescence of the dye at […] following excitation at 485 nm.

Sequence of human PKR1 receptors (Q8TCW9 whole entry): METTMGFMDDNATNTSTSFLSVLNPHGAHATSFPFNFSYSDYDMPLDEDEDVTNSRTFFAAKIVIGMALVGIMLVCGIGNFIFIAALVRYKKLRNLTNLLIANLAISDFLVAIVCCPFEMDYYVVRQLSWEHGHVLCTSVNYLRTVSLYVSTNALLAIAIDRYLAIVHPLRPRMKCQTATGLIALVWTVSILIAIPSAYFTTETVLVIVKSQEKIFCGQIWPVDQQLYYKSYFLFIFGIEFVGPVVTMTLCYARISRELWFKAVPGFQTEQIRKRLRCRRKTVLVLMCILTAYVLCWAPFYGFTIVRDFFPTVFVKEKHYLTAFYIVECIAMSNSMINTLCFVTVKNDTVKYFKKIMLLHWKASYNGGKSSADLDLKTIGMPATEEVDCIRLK

Row | IC50 | Structure (SMILES)
1 | 5530 nM | CCN(C)c1cc(C(=O)N2CCCC(c3ccc(C)cc3)C2)ccn1 (stereo not drawn) [Example 37, N-Ethyl-N-methyl-4-{[3-(4-methylphenyl)piperidin-1-yl]carbonyl}pyridin-2-amine]
2 | 6500 nM | Cc1ccc(C2CCCN(C(=O)c3ccnc(N4CC(F)(F)C4)c3)C2)cc1 (stereo not drawn) [Example 38, 2-(3,3-Difluoroazetidin-1-yl)-4-{[3-(4-methylphenyl)piperidin-1-yl]carbonyl}pyridine]
3 | 8220 nM | CCCN(C)c1cc(C(=O)N2CCCC(c3ccc(C)cc3)C2)ccn1 (stereo not drawn) [Example 39, N-Methyl-4-{[3-(4-methylphenyl)piperidin-1-yl]carbonyl}-N-propylpyridin-2-amine]
4 | 7030 nM | Cc1ccc(C2CCCN(C(=O)c3ccnc(N(C)C(C)C)c3)C2)cc1 (stereo not drawn) [Example 40, N-Methyl-4-{[3-(4-methylphenyl)piperidin-1-yl]carbonyl}-N-(propan-2-yl)pyridin-2-amine]
5 | 8460 nM | Cc1ccc(C2CCCN(C(=O)c3ccnc(N4CC(O)C4)c3)C2)cc1 (stereo not drawn) [Example 41, 1-(4-{[3-(4-Methylphenyl)piperidin-1-yl]carbonyl}pyridin-2-yl)azetidin-3-ol]
6 | 8350 nM | CCOc1cc(C(=O)N2CCCC(c3ccc(Cl)cc3)C2)ccn1 (stereo not drawn) [Example 42, 4-{[3-(4-Chlorophenyl)piperidin-1-yl]carbonyl}-2-ethoxypyridine]
7 | 7050 nM | Cc1ccc(C2CCCN(C(=O)c3ccnc(N(C)C4CC4)c3)C2)cc1 (stereo not drawn) [Example 43, N-Cyclopropyl-N-methyl-4-{[3-(4-methylphenyl)piperidin-1-yl]carbonyl}pyridin-2-amine]
8 | 4400 nM | CN(C)c1cc(C(=O)N2CCCC(c3ccc(C(F)(F)F)cc3)C2)ccn1 (stereo not drawn) [Example 44, N,N-Dimethyl-4-({3-[4-(trifluoromethyl)phenyl]piperidin-1-yl}carbonyl)pyridin-2-amine formate]
9 | 220 nM | CN(C)c1cc(C(=O)N2CCCC(c3ccccc3C(F)(F)F)C2)ccn1 (stereo not drawn) [Example 45, N,N-Dimethyl-4-({3-[2-(trifluoromethyl)phenyl]piperidin-1-yl}carbonyl)pyridin-2-amine]
10 | 7790 nM | CN(C)c1cc(C(=O)N2CCCC(c3ccccc3Cl)C2)ccn1 (stereo not drawn) [Example 46, 4-{[3-(2-Chlorophenyl)piperidin-1-yl]carbonyl}-N,N-dimethylpyridin-2-amine]
11 | 460 nM | COc1ccc(C2CCCN(C(=O)c3ccnc(N(C)C)c3)C2)cc1 (stereo not drawn) [Example 47, 4-{[3-(4-Methoxyphenyl)piperidin-1-yl]carbonyl}-N,N-dimethylpyridin-2-amine]
12 | 410 nM | COc1ccccc1C1CCCN(C(=O)c2ccnc(N(C)C)c2)C1 (stereo not drawn) [Example 48, 4-{[3-(2-Methoxyphenyl)piperidin-1-yl]carbonyl}-N,N-dimethylpyridin-2-amine]
13 | 420 nM | Cc1ccc(C2CCCN(C(=O)c3ccnc(N(C)C)c3)C2)cc1 (stereo not drawn) [Example 49, N,N-Dimethyl-4-{[3-(4-methylphenyl)piperidin-1-yl]carbonyl}pyridin-2-amine]
14 | 510 nM | CCc1cc(C(=O)N2CCCC(c3ccc(Cl)cc3)C2)ccn1 (stereo not drawn) [Example 52, 4-{[3-(4-Chlorophenyl)piperidin-1-yl]carbonyl}-2-ethylpyridine]
15 | 2920 nM | CNc1cc(C(=O)N2CCCC(c3ccc(C(F)(F)F)cc3)C2)ccn1 (stereo not drawn) [Example 53, N-Methyl-4-({3-[4-(trifluoromethyl)phenyl]piperidin-1-yl}carbonyl)pyridin-2-amine]
16 | 230 nM | CNc1cc(C(=O)N2CCCC(c3ccccc3C(F)(F)F)C2)ccn1 (stereo not drawn) [Example 54, N-Methyl-4-({3-[2-(trifluoromethyl)phenyl]piperidin-1-yl}carbonyl)pyridin-2-amine]
17 | 350 nM | CNc1cc(C(=O)N2CCCC(c3ccc(OC)cc3)C2)ccn1 (stereo not drawn) [Example 55, 4-{[3-(4-Methoxyphenyl)piperidin-1-yl]carbonyl}-N-methylpyridin-2-amine hemi formate]
18 | 440 nM | CNc1cc(C(=O)N2CCCC(c3ccccc3OC)C2)ccn1 (stereo not drawn) [Example 56, 4-{[3-(2-Methoxyphenyl)piperidin-1-yl]carbonyl}-N-methylpyridin-2-amine]
19 | 50 nM | CNc1cc(C(=O)N2CCCC(c3ccc(Cl)cc3C(F)(F)F)C2)ccn1 (stereo not drawn) [Example 57, 4-({3-[4-Chloro-2-(trifluoromethyl)phenyl]piperidin-1-yl}carbonyl)-N-methylpyridin-2-amine]
20 | 820 nM | CCc1cc(C(=O)N2CCCC(c3ccccc3C(F)(F)F)C2)ccn1 (stereo not drawn) [Example 58, 2-Ethyl-4-({3-[2-(trifluoromethyl)phenyl]piperidin-1-yl}carbonyl)pyridine]

Row | IC50 | Structure (SMILES)
21 | 1600 nM | CCc1cc(C(=O)N2CCCC(c3ccccc3OC)C2)ccn1 (stereo not drawn) [Example 59, 2-Ethyl-4-{[3-(2-methoxyphenyl)piperidin-1-yl]carbonyl}pyridine]
22 | 1600 nM | CN(C)c1cc(C(=O)N2CCCC(c3ccccc3OC(F)(F)F)C2)ccn1 (stereo not drawn) [Example 60, N,N-Dimethyl-4-({3-[2-(trifluoromethoxy)phenyl]piperidin-1-yl}carbonyl)pyridin-2-amine]
23 | 100 nM | CCOc1cc(Cl)ccc1C1CCCN(C(=O)c2ccnc(N(C)C)c2)C1 (stereo not drawn) [Example 61, 4-{[3-(4-Chloro-2-ethoxyphenyl)piperidin-1-yl]carbonyl}-N,N-dimethylpyridin-2-amine]
24 | 100 nM | COc1ccc(C2CCCN(C(=O)c3ccnc(N(C)C)c3)C2)c(C(F)(F)F)c1 (stereo not drawn) [Example 62, 4-({3-[4-Methoxy-2-(trifluoromethyl)phenyl]piperidin-1-yl}carbonyl)-N,N-dimethylpyridin-2-amine]
25 | 40 nM | CNc1cc(C(=O)N2CCCC(c3ccc(OC)cc3C)C2)ccn1 (stereo not drawn) [Example 63, 4-{[3-(4-Methoxy-2-methylphenyl)piperidin-1-yl]carbonyl}-N-methylpyridin-2-amine]
26 | 50 nM | CNc1cc(C(=O)N2CCCC(c3ccc(OC)cc3C(F)(F)F)C2)ccn1 (stereo not drawn) [Example 64, 4-({3-[4-Methoxy-2-(trifluoromethyl)phenyl]piperidin-1-yl}carbonyl)-N-methylpyridin-2-amine formate]
27 | 70 nM | CCOc1cc(Cl)ccc1C1CCCN(C(=O)c2ccnc(NC)c2)C1 (stereo not drawn) [Example 65, 4-{[3-(4-Chloro-2-ethoxyphenyl)piperidin-1-yl]carbonyl}-N-methylpyridin-2-amine]
28 | 700 nM | CN(C)c1cc(C(=O)N2CCCC(c3ccccc3OC(F)F)C2)ccn1 (stereo not drawn) [Example 66, 4-({3-[2-(Difluoromethoxy)phenyl]piperidin-1-yl}carbonyl)-N,N-dimethylpyridin-2-amine]
29 | 2260 nM | CN(C)c1cc(C(=O)N2CCCC(c3ccccc3C#N)C2)ccn1 (stereo not drawn) [Example 67, 2-(1-{[2-(Dimethylamino)pyridin-4-yl]carbonyl}piperidin-3-yl)benzonitrile]
30 | 1540 nM | Cc1cc(Cl)cc(C)c1C1CCCN(C(=O)c2ccnc(N(C)C)c2)C1 (stereo not drawn) [Example 68, 4-{[3-(4-Chloro-2,6-dimethylphenyl)piperidin-1-yl]carbonyl}-N,N-dimethylpyridin-2-amine]
31 | 810 nM | CN(C)c1cc(C(=O)N2CCCC(c3ccc(Cl)cc3)C2)cnn1 (stereo not drawn) [Example 69, 5-{[3-(4-Chlorophenyl)piperidin-1-yl]carbonyl}-N,N-dimethylpyridazin-3-amine]
32 | 70 nM | CNc1cc(C(=O)N2CCCC(c3ccc(Cl)cc3C)C2)cnn1 (stereo not drawn) [Example 71, 5-{[3-(4-Chloro-2-methylphenyl)piperidin-1-yl]carbonyl}-N-methylpyridazin-3-amine]
33 | 30 nM | CNc1cc(C(=O)N2CCC[C@H](c3ccc(Cl)cc3C)C2)cnn1 [Example 72, 5-{[(3R)-3-(4-Chloro-2-methylphenyl)piperidin-1-yl]carbonyl}-N-methylpyridazin-3-amine]
34 | 350 nM | COc1cc(C(=O)N2CCCC(c3ccc(Cl)cc3C)C2)cnn1 (stereo not drawn) [Example 74, 5-{[3-(4-Chloro-2-methylphenyl)piperidin-1-yl]carbonyl}-3-methoxypyridazine]
35 | 110 nM | CN(C)c1cc(C(=O)N2CCCC(c3ccc(Cl)cc3C(F)(F)F)C2)cnn1 (stereo not drawn) [Example 75, 5-({3-[4-Chloro-2-(trifluoromethyl)phenyl]piperidin-1-yl}carbonyl)-N,N-dimethylpyridazin-3-amine]
36 | 80 nM | CNc1cc(C(=O)N2CCCC(c3ccc(Cl)cc3C(F)(F)F)C2)cnn1 (stereo not drawn) [Example 76, 5-({3-[4-Chloro-2-(trifluoromethyl)phenyl]piperidin-1-yl}carbonyl)-N-methylpyridazin-3-amine]
37 | 730 nM | O=C(c1cnnc(N2CCC2)c1)N1CCCC(c2ccc(Cl)cc2C(F)(F)F)C1 (stereo not drawn) [Example 77, 3-(Azetidin-1-yl)-5-({3-[4-chloro-2-(trifluoromethyl)phenyl]piperidin-1-yl}carbonyl)pyridazine]
38 | 3000 nM | CNc1cc(C(=O)N2CCCC(c3ccc(C(F)(F)F)cc3OC)C2)cnn1 (stereo not drawn) [Example 78, 5-({3-[2-Methoxy-4-(trifluoromethyl)phenyl]piperidin-1-yl}carbonyl)-N-methylpyridazin-3-amine]
39 | 130 nM | CNc1cc(C(=O)N2CCCC(c3ccc(OC)cc3C)C2)cnn1 (stereo not drawn) [Example 79, 5-{[3-(4-Methoxy-2-methylphenyl)piperidin-1-yl]carbonyl}-N-methylpyridazin-3-amine]
